The source of these data is patent publication US9062284B2, “Uses and detection of herbicide resistance genes for resistance to aryloxyalkanoate herbicides” (Dow ArgoSciences LLC, priority 2007, dated 2015).

Assay [1] relates to Homozygous AAD-12 (v1) gene T4 Arabidopsis plants. Nature of the assay: Herbicide response of homozygous AAD-12 (v1) T4 Arabidopsis. Format: in vivo, Arabidopsis thaliana. Particulars: for % Injury 20-40% (individuals) / % Injury <20% (individuals) / % Injury >40% (individuals) / % Injury Ave: 14 DAT. The text has this:
T1 plants were then randomly assigned to various rates of 2,4-D. For Arabidopsis, 50 g ae/ha 2,4-D is an effective dose to distinguish sensitive plants from ones with meaningful levels of resistance. Elevated rates were also applied to determine relative levels of resistance (280, 560, 1120, or 2240 g ae/ha). Tables 11 and 12 show comparisons drawn to an aryloxyalkanoate herbicide resistance gene (AAD-12 (v1)) previously described in PCT/US2006/042133.
All auxin herbicide applications were made using the DeVilbiss sprayer as described above to apply 703 L/ha spray volume (0.4 ml solution/3-inch pot) or applied by track sprayer in a 187 L/ha spray volume. 2,4-D used was either technical grade (Sigma, St. Louis, Mo.) dissolved in DMSO and diluted in water (<1% DMSO final concentration) or the commercial dimethylamine salt formulation (456 g ae/L, NuFarm, St Joseph, Mo.). Dichlorprop used was commercial grade formulated as potassium salt of R-dichlorprop (600 g ai/L, AH Marks). As herbicide rates increased beyond 800 g ae/ha, the pH of the spray solution became exceedingly acidic, burning the leaves of young, tender Arabidopsis plants and complicating evaluation of the primary effects of the herbicides.
The first Arabidopsis transformations were conducted using AAD-13 (v1) (plant optimized gene). T1 transformants were first selected from the background of untransformed seed using a glufosinate selection scheme. Over 160,000 T1 seed were screened and 238 glufosinate resistant plants were identified (PAT gene), equating to a transformation/selection frequency of 0.15% which lies in the normal range of selection frequency of constructs where PAT+Liberty are used for selection. T1 plants selected above were subsequently transplanted to individual pots and sprayed with various rates of commercial aryloxyalkanoate herbicides. Table 11 compares the response of AAD-13 (v1) and control genes to impart 2,4-D resistance to Arabidopsis T1 transformants. Response is presented in terms of % visual injury 2 WAT. […] An arithmetic mean and standard deviation is presented for each treatment. The range in individual response is also indicated in the last column for each rate and transformation. PAT/Cry1F-transformed Arabidopsis served as an auxin-sensitive transformed control. The AAD-13 (v1) gene imparted herbicide resistance to individual T1 Arabidopsis plants. Within a given treatment, the level of plant response varied greatly and can be attributed to the fact each plant represents an independent transformation event. Of important note, at each 2,4-D rate tested, there were individuals that were unaffected while some were severely affected. […] At high rates the spray solution becomes highly acidic unless buffered therefore some of the injury may be attributed to the acidity of the spray solution. Arabidopsis grown mostly in the growth chamber has a very thin cuticle and severe burning effects can complicate testing at these elevated rates. Nonetheless, many individuals have survived 2,240 g ae/ha 2,4-D with little or no injury.
The ability of AAD-13 (v1) to provide resistance to other aryloxyalkanoate auxin herbicides in transgenic Arabidopsis was determined by foliar application of various substrates. T2 generation Arabidopsis seed was stratified, and sown into selection trays much like that of Arabidopsis (Example 6.4). A transformed-control line containing PAT and the insect resistance gene Cry1F was planted in a similar manner. Seedlings were transferred to individual 3-inch pots in the greenhouse. All plants were sprayed with the use of a track sprayer set at 187 L/ha. The plants were sprayed with a range of pyridyloxyacetate herbicides: 200-800 g ae/ha triclopyr (Garlon 3A, Dow AgroSciences) and 200-800 g ae/ha fluoroxypyr (Starane, Dow AgroSciences). […]

The test system of assay [2] is KY160 untransformed tobacco. Nature of the assay: Herbicide response of untransformed KY160 tobacco. Particulars: for % Injury 20-40% (individuals) / % Injury <20% (individuals) / % Injury >40% (individuals) / % Injury Ave: 2 WAT; for plant response to foliar applied auxinic herbicides (injury): 14 days after application. Format: in vivo, Nicotiana tabacum. The text has this: (§1) Surviving T1 plants were then randomly assigned to various rates of 2,4-D. For tobacco, 140 g ae/ha 2,4-D is an effective dose to distinguish sensitive plants from ones with meaningful levels of resistance. Elevated rates were also applied to determine relative levels of resistance (140, 560, or 2240 g ae/ha).
(§2) All auxin herbicide applications were applied by track sprayer in a 187 L/ha spray volume. 2,4-D used was the commercial dimethylamine salt formulation (456 g ae/L, NuFarm, St Joseph, Mo.). Some T1 individuals were subjected to alternative commercial herbicides instead of a phenoxy auxin. One point of interest was determining whether the pyridyloxyacetate auxin herbicides, triclopyr and fluoroxypyr, could be effectively degraded in planta. Herbicides were applied to T1 plants with use of a track sprayer in a 187 L/ha spray volume.
(§3) T1 transformants were first selected from the background of untransformed plants using a 2,4-D selection scheme. Table 15 compares the response of AAD-13 (v1) and control genes to impart 2,4-D resistance to tobacco T1 transformants. Response is presented in terms of % visual injury 2 WAT. […] An arithmetic mean and standard deviation is presented for each treatment. The range in individual response is also indicated in the last column for each rate and transformation. KY160 untransformed tobacco served as an auxin-sensitive control. The AAD-13 (v1) gene imparted herbicide resistance to individual T1 tobacco plants.
(§4) The ability of AAD-13 (v1) to provide resistance to other aryloxyalkanoate auxin herbicides in transgenic tobacco was determined by foliar application of various substrates. Extra T1 generation plants following the T1 progeny testing were sprayed with the use of a track sprayer set at 187 L/ha. The plants were sprayed with a range of pyridyloxyacetate herbicides: 140-1120 g ae/ha triclopyr (Garlon 3A, Dow AgroSciences) and 280-1120 g ae/ha fluoroxypyr (Starane, Dow AgroSciences). All applications were formulated in water. Each treatment was replicated 3 times. Plants were evaluated at 3 and 14 days after treatment.

Assay [3] relates to AAD-13 (v1) gene T1 tobacco plants. Nature of the assay: Herbicide response of AAD-13 (v1) T1 tobacco. The assay is classed as in vivo, Nicotiana tabacum. Particulars: for % Injury 20-40% (individuals) / % Injury <20% (individuals) / % Injury >40% (individuals) / % Injury Ave: 2 WAT; for plant response to foliar applied auxinic herbicides (injury): 14 days after application, line pDAB4114[1]003.006.
Text: as §1, §2, §3, §4

For `CNC.O=C(O)COc1ccc(Cl)cc1Cl` [2,4-D DMA], the “% Injury 20-40% (individuals)” value was 0 in assay [1] (280 g ae/ha postemergence); 0 in assay [1] (560 g ae/ha postemergence); 0 in assay [1] (1120 g ae/ha postemergence); 3 in assay [1] (2240 g ae/ha postemergence); 0 in assay [2] (140 g ae/ha postemergence); 0 in assay [2] (560 g ae/ha postemergence). In addition, the “% Injury 20-40% (individuals)” value in assay [2] (2240 g ae/ha postemergence), in assay [3] (140 g ae/ha postemergence), in assay [3] (560 g ae/ha postemergence) and in assay [3] (2240 g ae/ha postemergence) was 0 throughout. For the same molecule, the “% Injury <20% (individuals)” value in assay [1] (280 g ae/ha postemergence) worked out at 20; in assay [1] (560 g ae/ha postemergence), 20; in assay [1] (1120 g ae/ha postemergence), 20; in assay [1] (2240 g ae/ha postemergence), 16; in assay [2] (140 g ae/ha postemergence), 0; in assay [2] (560 g ae/ha postemergence) it was 0. The “% Injury <20% (individuals)” value in assay [2] (2240 g ae/ha postemergence) is 0; in assay [3] (140 g ae/ha postemergence), 3; in assay [3] (560 g ae/ha postemergence), 3; in assay [3] (2240 g ae/ha postemergence), 3. Further, the “% Injury >40% (individuals)” value in assay [1] (280 g ae/ha postemergence) came out at 0; in assay [1] (560 g ae/ha postemergence), 0; in assay [1] (1120 g ae/ha postemergence) it was 0; in assay [1] (2240 g ae/ha postemergence) it was 1; in assay [2] (140 g ae/ha postemergence), 3; in assay [2] (560 g ae/ha postemergence) it was 3. For the same molecule, the “% Injury >40% (individuals)” value is reported as 3 in assay [2] (2240 g ae/ha postemergence), 0 in assay [3] (140 g ae/ha postemergence), 0 in assay [3] (560 g ae/ha postemergence) and 0 in assay [3] (2240 g ae/ha postemergence). Further, the “% Injury Ave” value in assay [1] (280 g ae/ha postemergence) worked out at 0%; in assay [1] (560 g ae/ha postemergence), 1%; in assay [1] (1120 g ae/ha postemergence), 2%; in assay [1] (2240 g ae/ha postemergence), 13%; in assay [2] (140 g ae/ha postemergence), 80.0%; in assay [2] (560 g ae/ha postemergence), 88.0%. Also, the “% Injury Ave” value came to 92.0% in assay [2] (2240 g ae/ha postemergence), 0.0% in assay [3] (140 g ae/ha postemergence), 0.0% in assay [3] (560 g ae/ha postemergence) and 2.0% in assay [3] (2240 g ae/ha postemergence).

In the case of `C[C@@H](Oc1ccc(Cl)cc1Cl)C(=O)O` [R-dichloroprop, R-dichlorprop], in assay [1] (800 g ae/ha postemergence), the “% Injury 20-40% (individuals)” value stood at 0, the “% Injury <20% (individuals)” value came to 0, the “% Injury >40% (individuals)” value came to 20 and the “% Injury Ave” value came out at 100%.

For `Nc1c(Cl)c(F)nc(OCC(=O)O)c1Cl` [fluoroxypyr], the “Ave. % Injury 14DAT” value in assay [1] (200 g ae/ha foliar-applied) came out at 48%; in assay [1] (400 g ae/ha foliar-applied) it was 55%; in assay [1] (800 g ae/ha foliar-applied) it was 60%. Besides, the “plant response to foliar applied auxinic herbicides (injury)” value stood at 100.0 in assay [2] (280 g ae/ha); 100.0 in assay [2] (560 g ae/ha); 100.0 in assay [2] (1120 g ae/ha); 7.0 in assay [3] (280 g ae/ha); 25.0 in assay [3] (560 g ae/ha); 37.0 in assay [3] (1120 g ae/ha). The “rate up to which significant tolerance is provided” value in assay [3] (foliar application, T1 tobacco) is “up to 1120 g ae/ha”.

As for `O=C(O)COc1nc(Cl)c(Cl)cc1Cl` [triclopyr], the “Ave. % Injury 14DAT” value is recorded as 25% in assay [1] (200 g ae/ha foliar-applied), 33% in assay [1] (400 g ae/ha foliar-applied) and 79% in assay [1] (800 g ae/ha foliar-applied). For the same molecule, the “plant response to foliar applied auxinic herbicides (injury)” value in assay [2] (280 g ae/ha) stood at 82.0; in assay [2] (560 g ae/ha) it was 88.0; in assay [2] (1120 g ae/ha), 92.0; in assay [3] (280 g ae/ha), 53.0; in assay [3] (560 g ae/ha) it was 65.0; in assay [3] (1120 g ae/ha), 75.0.
